In the kinase profiling compilation of Christmann-Franck et al. (2016):

Columns and labels:
Assay in all cases: KINOMEscan competition binding
Details in all cases: compound 10.0 µM
SNRK (human) = SNRK (human) (UniProt Q9NRH2)
[1] = tested on: EGFR (human), P00533 [P753S; 747-752 del]
IRAK1 (human) = IRAK1 (human) (UniProt P51617)
MTOR (human) = MTOR (human) (UniProt P42345)
[2] = tested on: EGFR (human), P00533 [L861Q]
NEK4 (human) = NEK4 (human) (UniProt P51957)
PKN3 (M.tuberculosis) = PKN3 (M.tuberculosis) (UniProt Q6P5Z2)
HIPK2 (human) = HIPK2 (human) (UniProt Q9H2X6)
EIF2AK1 (human) = EIF2AK1 (human) (UniProt Q9BQI3)
MATK (human) = MATK (human) (UniProt P42679)
ROCK1 (human) = ROCK1 (human) (UniProt Q13464)
MAP2K5 (human) = MAP2K5 (human) (UniProt Q13163)
TBK1 (human) = TBK1 (human) (UniProt Q9UHD2)
NEK11 (human) = NEK11 (human) (UniProt Q8NG66)
MAP3K2 (human) = MAP3K2 (human) (UniProt Q9Y2U5)
CASK (human) = CASK (human) (UniProt O14936)
EPHB6 (human) = EPHB6 (human) (UniProt O15197)
MAP3K15 (human) = MAP3K15 (human) (UniProt Q6ZN16)
TRPM6 (human) = TRPM6 (human) (UniProt Q9BX84)
MAP3K1 (human) = MAP3K1 (human) (UniProt Q13233)
HUNK (human) = HUNK (human) (UniProt P57058)
TAOK2 (human) = TAOK2 (human) (UniProt Q9UL54)
IRAK4 (human) = IRAK4 (human) (UniProt Q9NWZ3)
SIK3 (human) = SIK3 (human) (UniProt Q9Y2K2)
HIPK3 (human) = HIPK3 (human) (UniProt Q9H422)
PLK2 (human) = PLK2 (human) (UniProt Q9NYY3)
LRRK2 (human) = LRRK2 (human) (UniProt Q5S007)
PRPF4B (human) = PRPF4B (human) (UniProt Q13523)
MET (human) = MET (human) (UniProt P08581)
[3] = tested on: KIT (human), P10721 [V559D/T670I]
CDKL5 (human) = CDKL5 (human) (UniProt O76039)
VRK2 (human) = VRK2 (human) (UniProt Q86Y07)
[4] = tested on: PIK3CA (human), P42336 [E545A]
[5] = tested on: PIK3CA (human), P42336 [I800L]
GRK4 (human) = GRK4 (human) (UniProt P32298)
GRK1 (human) = GRK1 (human) (UniProt Q15835)
BTK (human) = BTK (human) (UniProt Q06187)
CDK2 (human) = CDK2 (human) (UniProt P24941)
STK38 (human) = STK38 (human) (UniProt Q15208)

Chain of MATK (human) (P42679 whole entry, looked up): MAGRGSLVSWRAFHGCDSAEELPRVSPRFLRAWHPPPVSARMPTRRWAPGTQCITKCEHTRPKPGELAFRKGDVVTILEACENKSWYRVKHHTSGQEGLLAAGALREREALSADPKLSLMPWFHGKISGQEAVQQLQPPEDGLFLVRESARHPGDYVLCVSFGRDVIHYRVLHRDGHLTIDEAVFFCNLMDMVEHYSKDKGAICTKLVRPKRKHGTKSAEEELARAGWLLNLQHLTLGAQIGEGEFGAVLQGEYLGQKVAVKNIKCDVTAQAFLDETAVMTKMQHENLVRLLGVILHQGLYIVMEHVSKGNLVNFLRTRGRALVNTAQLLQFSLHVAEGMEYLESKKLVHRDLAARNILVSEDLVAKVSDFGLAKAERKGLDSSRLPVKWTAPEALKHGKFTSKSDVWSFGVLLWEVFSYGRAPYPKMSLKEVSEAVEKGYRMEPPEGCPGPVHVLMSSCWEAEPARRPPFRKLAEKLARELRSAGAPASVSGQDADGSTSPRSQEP
Chain of GRK1 (human) (Q15835 whole entry, looked up): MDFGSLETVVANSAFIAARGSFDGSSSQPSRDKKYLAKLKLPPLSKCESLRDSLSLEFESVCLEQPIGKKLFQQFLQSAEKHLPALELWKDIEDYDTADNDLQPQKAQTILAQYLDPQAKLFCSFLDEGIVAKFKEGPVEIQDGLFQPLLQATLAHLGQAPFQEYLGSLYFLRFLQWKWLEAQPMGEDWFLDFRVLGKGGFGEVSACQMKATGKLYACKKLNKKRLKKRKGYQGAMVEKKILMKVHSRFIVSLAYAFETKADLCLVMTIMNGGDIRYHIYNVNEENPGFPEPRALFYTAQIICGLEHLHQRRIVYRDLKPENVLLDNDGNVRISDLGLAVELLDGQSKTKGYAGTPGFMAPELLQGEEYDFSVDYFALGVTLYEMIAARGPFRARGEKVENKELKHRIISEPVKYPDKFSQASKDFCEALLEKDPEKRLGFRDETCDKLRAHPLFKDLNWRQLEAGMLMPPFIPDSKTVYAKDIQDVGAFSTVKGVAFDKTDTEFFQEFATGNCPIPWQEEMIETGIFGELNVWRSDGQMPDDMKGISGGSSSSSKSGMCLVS
Chain of HUNK (human) (P57058 whole entry, looked up): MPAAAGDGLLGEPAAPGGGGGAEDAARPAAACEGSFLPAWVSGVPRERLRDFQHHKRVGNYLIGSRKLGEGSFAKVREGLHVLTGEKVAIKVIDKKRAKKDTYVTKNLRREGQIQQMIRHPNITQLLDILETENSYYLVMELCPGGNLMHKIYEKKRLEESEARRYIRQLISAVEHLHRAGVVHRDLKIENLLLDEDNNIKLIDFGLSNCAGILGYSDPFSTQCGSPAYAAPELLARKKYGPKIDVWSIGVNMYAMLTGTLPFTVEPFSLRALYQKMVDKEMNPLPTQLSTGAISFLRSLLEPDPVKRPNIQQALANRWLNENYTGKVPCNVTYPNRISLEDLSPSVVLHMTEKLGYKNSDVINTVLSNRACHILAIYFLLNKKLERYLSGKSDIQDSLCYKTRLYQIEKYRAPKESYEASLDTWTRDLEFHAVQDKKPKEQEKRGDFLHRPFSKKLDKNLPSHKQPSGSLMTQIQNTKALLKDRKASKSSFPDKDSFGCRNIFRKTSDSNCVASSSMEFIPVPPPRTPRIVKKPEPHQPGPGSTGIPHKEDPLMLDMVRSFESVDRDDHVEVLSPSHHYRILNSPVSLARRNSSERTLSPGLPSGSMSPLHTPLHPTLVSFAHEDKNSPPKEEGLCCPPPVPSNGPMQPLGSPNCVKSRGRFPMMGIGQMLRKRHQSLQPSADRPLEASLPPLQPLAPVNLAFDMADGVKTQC
Chain of PRPF4B (human) (Q13523 whole entry, looked up): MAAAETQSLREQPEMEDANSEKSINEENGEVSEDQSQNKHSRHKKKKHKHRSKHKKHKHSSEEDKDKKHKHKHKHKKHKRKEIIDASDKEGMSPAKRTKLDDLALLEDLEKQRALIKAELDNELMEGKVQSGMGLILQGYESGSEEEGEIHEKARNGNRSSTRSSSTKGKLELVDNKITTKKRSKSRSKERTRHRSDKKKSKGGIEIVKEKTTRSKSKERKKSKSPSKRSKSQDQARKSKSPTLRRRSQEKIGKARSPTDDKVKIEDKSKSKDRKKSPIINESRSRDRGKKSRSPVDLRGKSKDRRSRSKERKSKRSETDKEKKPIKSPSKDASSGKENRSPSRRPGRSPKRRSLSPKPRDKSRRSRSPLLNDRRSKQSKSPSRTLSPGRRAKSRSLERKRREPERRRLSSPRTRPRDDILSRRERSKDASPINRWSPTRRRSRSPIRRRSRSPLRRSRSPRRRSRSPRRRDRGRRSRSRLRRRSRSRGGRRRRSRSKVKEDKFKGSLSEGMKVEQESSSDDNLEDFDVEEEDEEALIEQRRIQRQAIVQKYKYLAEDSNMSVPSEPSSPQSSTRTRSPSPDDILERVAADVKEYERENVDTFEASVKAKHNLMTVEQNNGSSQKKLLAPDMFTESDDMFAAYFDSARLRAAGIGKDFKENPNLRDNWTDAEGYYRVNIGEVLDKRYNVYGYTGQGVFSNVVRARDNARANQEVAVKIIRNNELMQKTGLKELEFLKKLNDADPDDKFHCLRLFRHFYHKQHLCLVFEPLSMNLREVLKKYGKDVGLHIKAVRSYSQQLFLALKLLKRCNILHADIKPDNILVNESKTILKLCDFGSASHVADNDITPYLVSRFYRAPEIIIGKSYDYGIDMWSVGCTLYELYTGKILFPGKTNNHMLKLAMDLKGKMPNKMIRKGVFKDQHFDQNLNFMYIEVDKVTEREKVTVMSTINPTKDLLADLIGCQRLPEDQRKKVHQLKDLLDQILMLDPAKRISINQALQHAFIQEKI
Chain of TAOK2 (human) (Q9UL54 whole entry, looked up): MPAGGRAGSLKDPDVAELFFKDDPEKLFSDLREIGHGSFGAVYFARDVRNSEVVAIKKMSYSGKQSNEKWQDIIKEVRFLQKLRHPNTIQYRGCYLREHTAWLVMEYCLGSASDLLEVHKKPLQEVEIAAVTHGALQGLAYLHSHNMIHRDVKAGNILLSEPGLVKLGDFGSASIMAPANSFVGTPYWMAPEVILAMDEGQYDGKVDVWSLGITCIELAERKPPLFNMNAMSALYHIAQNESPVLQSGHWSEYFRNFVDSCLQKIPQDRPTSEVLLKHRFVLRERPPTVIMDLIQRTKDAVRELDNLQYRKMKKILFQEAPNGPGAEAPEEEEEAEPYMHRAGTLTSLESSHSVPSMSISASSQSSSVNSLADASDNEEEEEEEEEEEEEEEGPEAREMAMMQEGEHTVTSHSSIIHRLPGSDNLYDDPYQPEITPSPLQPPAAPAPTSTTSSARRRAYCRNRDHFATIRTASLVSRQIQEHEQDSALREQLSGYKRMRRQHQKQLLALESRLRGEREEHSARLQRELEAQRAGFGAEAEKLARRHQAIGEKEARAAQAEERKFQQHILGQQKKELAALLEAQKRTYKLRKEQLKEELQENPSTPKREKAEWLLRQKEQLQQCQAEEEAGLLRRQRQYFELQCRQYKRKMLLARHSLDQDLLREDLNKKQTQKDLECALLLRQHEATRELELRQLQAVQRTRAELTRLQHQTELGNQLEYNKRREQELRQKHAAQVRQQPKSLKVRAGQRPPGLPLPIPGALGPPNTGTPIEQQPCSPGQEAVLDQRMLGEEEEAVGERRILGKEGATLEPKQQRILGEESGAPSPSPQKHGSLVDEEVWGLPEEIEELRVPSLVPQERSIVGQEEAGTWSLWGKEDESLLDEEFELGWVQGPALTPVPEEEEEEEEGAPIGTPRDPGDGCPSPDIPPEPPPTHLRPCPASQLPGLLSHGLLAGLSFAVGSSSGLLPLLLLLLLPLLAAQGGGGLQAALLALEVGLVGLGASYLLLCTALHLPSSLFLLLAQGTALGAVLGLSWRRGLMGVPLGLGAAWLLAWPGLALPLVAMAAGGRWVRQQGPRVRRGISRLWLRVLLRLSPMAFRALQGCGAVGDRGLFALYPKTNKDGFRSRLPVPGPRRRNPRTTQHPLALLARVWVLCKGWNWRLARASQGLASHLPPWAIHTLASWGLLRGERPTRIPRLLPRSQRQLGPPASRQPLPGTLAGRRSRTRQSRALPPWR
Chain of IRAK4 (human) (Q9NWZ3 whole entry, looked up): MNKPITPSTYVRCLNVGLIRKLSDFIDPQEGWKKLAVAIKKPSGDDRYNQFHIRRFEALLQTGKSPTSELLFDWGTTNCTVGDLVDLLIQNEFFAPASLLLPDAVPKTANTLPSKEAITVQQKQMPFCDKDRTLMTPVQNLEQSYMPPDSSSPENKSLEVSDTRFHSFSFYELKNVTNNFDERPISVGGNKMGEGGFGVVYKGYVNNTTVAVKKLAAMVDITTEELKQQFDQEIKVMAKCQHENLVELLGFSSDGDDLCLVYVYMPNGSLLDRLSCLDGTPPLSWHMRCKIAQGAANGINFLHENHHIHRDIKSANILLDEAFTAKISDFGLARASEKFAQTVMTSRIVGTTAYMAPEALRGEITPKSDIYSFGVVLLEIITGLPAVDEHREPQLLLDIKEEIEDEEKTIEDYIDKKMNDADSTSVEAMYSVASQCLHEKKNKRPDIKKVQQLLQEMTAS
Chain of GRK4 (human) (P32298 whole entry, looked up): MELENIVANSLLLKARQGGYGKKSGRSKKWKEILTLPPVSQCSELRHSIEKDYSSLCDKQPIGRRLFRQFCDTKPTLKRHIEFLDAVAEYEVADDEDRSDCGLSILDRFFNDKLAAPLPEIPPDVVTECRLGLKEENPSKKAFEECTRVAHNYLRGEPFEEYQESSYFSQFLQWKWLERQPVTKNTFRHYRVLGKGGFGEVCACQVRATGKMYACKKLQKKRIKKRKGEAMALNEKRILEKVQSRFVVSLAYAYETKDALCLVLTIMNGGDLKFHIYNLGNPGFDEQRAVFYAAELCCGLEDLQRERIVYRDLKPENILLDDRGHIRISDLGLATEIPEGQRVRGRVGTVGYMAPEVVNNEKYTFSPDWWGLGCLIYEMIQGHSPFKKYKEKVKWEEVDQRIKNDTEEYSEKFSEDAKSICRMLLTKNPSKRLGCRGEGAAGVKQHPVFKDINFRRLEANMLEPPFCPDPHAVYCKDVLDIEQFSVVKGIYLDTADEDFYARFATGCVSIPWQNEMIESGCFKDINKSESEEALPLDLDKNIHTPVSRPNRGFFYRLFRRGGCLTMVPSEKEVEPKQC

| Compound | kinase still bound, per cent of control (SNRK (human)) [%] | kinase still bound, per cent of control [1] [%] | kinase still bound, per cent of control (IRAK1 (human)) [%] | kinase still bound, per cent of control (MTOR (human)) [%] | kinase still bound, per cent of control (NEK4 (human)) [%] | kinase still bound, per cent of control (PKN3 (M.tuberculosis)) [%] | kinase still bound, per cent of control (EIF2AK1 (human)) [%] | kinase still bound, per cent of control (MATK (human)) [%] | kinase still bound, per cent of control (ROCK1 (human)) [%] | kinase still bound, per cent of control (MAP2K5 (human)) [%] | kinase still bound, per cent of control (TBK1 (human)) [%] | kinase still bound, per cent of control (MAP3K2 (human)) [%] | kinase still bound, per cent of control (CASK (human)) [%] | kinase still bound, per cent of control (EPHB6 (human)) [%] | kinase still bound, per cent of control (MAP3K15 (human)) [%] | kinase still bound, per cent of control (TRPM6 (human)) [%] | kinase still bound, per cent of control (MAP3K1 (human)) [%] | kinase still bound, per cent of control (HUNK (human)) [%] | kinase still bound, per cent of control (TAOK2 (human)) [%] | kinase still bound, per cent of control (IRAK4 (human)) [%] | also measured |
| --- | --- | --- | --- | --- | --- | --- | --- | --- | --- | --- | --- | --- | --- | --- | --- | --- | --- | --- | --- | --- | --- |
| Cc1ccc2nc(NCCN)c3ncc(C)n3c2c1 | 100 | 100 | 78 | 87 | 100 | 0 | 87 | 100 | 100 | 96 | 100 | 100 | 100 | 44 | 100 | 87 | 74 | 100 | 70 | 100 | kinase still bound, per cent of control [2]: 100%; kinase still bound, per cent of control (HIPK2 (human)): 58%; kinase still bound, per cent of control (NEK11 (human)): 100%; kinase still bound, per cent of control (SIK3 (human)): 100%; kinase still bound, per cent of control (HIPK3 (human)): 32%; kinase still bound, per cent of control (PLK2 (human)): 100%; kinase still bound, per cent of control (LRRK2 (human)): 97%; kinase still bound, per cent of control (PRPF4B (human)): 66%; kinase still bound, per cent of control (MET (human)): 100%; kinase still bound, per cent of control [3]: 39%; kinase still bound, per cent of control (CDKL5 (human)): 46%; kinase still bound, per cent of control (VRK2 (human)): 100%; kinase still bound, per cent of control [4]: 31%; kinase still bound, per cent of control [5]: 100%; kinase still bound, per cent of control (GRK4 (human)): 100%; kinase still bound, per cent of control (GRK1 (human)): 100%; kinase still bound, per cent of control (BTK (human)): 100% |
| O=C(NOC[C@H](O)CO)c1ccc(F)c(F)c1Nc1ccc(I)cc1F | 100 | 59 | 100 | 100 | 78 | 91 | 100 | 100 | 100 | 86 | 85 | 100 | 67 | 87 | 100 | 100 | 54 | 100 | 100 | 100 | kinase still bound, per cent of control (NEK11 (human)): 91%; kinase still bound, per cent of control (SIK3 (human)): 52%; kinase still bound, per cent of control (HIPK3 (human)): 49%; kinase still bound, per cent of control (PLK2 (human)): 100%; kinase still bound, per cent of control (LRRK2 (human)): 86%; kinase still bound, per cent of control (PRPF4B (human)): 77%; kinase still bound, per cent of control [3]: 90%; kinase still bound, per cent of control (CDKL5 (human)): 67%; kinase still bound, per cent of control (VRK2 (human)): 100%; kinase still bound, per cent of control [4]: 45%; kinase still bound, per cent of control [5]: 33%; kinase still bound, per cent of control (GRK4 (human)): 100%; kinase still bound, per cent of control (CDK2 (human)): 91%; kinase still bound, per cent of control (STK38 (human)): 100%; kinase still bound, per cent of control (GRK1 (human)): 100%; kinase still bound, per cent of control (BTK (human)): 87% |
| CCCS(=O)(=O)Nc1ccc(F)c(C(=O)c2c[nH]c3ncc(-c4ccc(Cl)cc4)cc23)c1F | 100 | 78 | 99 | 100 | 95 | 78 | 60 | 100 | 85 | 0.15 | 100 | 100 | 80 | 5.8 | 100 | 100 | 91 | 9.1 | 53 | 86 | kinase still bound, per cent of control (HIPK2 (human)): 66%; kinase still bound, per cent of control (SIK3 (human)): 100%; kinase still bound, per cent of control (HIPK3 (human)): 100%; kinase still bound, per cent of control (PLK2 (human)): 97%; kinase still bound, per cent of control (LRRK2 (human)): 59%; kinase still bound, per cent of control (PRPF4B (human)): 92%; kinase still bound, per cent of control (MET (human)): 53%; kinase still bound, per cent of control [3]: 60%; kinase still bound, per cent of control (CDKL5 (human)): 100%; kinase still bound, per cent of control (VRK2 (human)): 100%; kinase still bound, per cent of control [4]: 95%; kinase still bound, per cent of control [5]: 93%; kinase still bound, per cent of control (GRK4 (human)): 100%; kinase still bound, per cent of control (STK38 (human)): 100%; kinase still bound, per cent of control (GRK1 (human)): 100%; kinase still bound, per cent of control (BTK (human)): 93% |
